Test results taken from patent EP4635500A1, “THERAPEUTIC AGENT FOR BACTERIAL INFECTION” (Sumitomo Pharma Co., Ltd., priority 2022, dated 2024).
Where two headings read alike, the source gives them in different places.

Experiments:
53 CRE and CPE strains = test: MICrange, MIC50, MIC80, MIC90 for 53 bacterial isolates (Example 5, Table 5); type: cell-based; conditions: 53 bacterial isolates
P. aeruginosa = test: MIC, broth microdilution, CDC/FDA Antibiotic Resistance Isolate Bank (Example 7, Tables 10, 15); type: cell-based; conditions: for MIC: Pseudomonas aeruginosa, read-out: MIC
[1] = 26 metallo-carbapenemase-producing P. aeruginosa strains, β-lactamase inhibitor µg/mL in parentheses
[2] = 96 strains of P. aeruginosa, β-lactamase inhibitor µg/mL in parentheses

C[C@H]1COc2c(N3CCN(C)CC3)c(F)cc3c(=O)c(C(=O)O)cn1c23 [Levofloxacin, levofloxacin]
0.032 µg/mL: MIC (P. aeruginosa; P. aeruginosa KUB No. 5814, AR Bank # 509) | MIC (P. aeruginosa; P. aeruginosa KUB No. 5831, AR Bank # 526) | MIC (P. aeruginosa; P. aeruginosa KUB No. 5832, AR Bank # 527) | MIC (P. aeruginosa; P. aeruginosa KUB No. 5833, AR Bank # 528)
0.004 µg/mL: MIC (P. aeruginosa; P. aeruginosa KUB No. 5817, AR Bank # 512)
4 µg/mL: MIC (P. aeruginosa; P. aeruginosa KUB No. 5694, AR Bank # 261) | MIC (P. aeruginosa; P. aeruginosa KUB No. 5798, AR Bank # 455) | MIC (P. aeruginosa; P. aeruginosa KUB No. 5804, AR Bank # 862)
0.016 µg/mL: MIC (P. aeruginosa; P. aeruginosa KUB No. 5834, AR Bank # 529)
1 µg/mL: MIC (P. aeruginosa; P. aeruginosa KUB No. 5680, AR Bank # 247) | MIC (P. aeruginosa; P. aeruginosa KUB No. 5686, AR Bank # 253) | MIC (P. aeruginosa; P. aeruginosa KUB No. 5756, AR Bank # 360)
8 µg/mL: MIC (P. aeruginosa; P. aeruginosa KUB No. 5665, AR Bank # 232) | MIC (P. aeruginosa; P. aeruginosa KUB No. 5667, AR Bank # 234) | MIC (P. aeruginosa; P. aeruginosa KUB No. 5684, AR Bank # 251) | MIC (P. aeruginosa; P. aeruginosa KUB No. 5701, AR Bank # 268) | MIC (P. aeruginosa; P. aeruginosa KUB No. 5705, AR Bank # 272) | MIC (P. aeruginosa; P. aeruginosa KUB No. 5747, AR Bank # 351) | MIC (P. aeruginosa; P. aeruginosa KUB No. 5750, AR Bank # 354) | MIC (P. aeruginosa; P. aeruginosa KUB No. 5754, AR Bank # 358) | MIC (P. aeruginosa; P. aeruginosa KUB No. 5755, AR Bank # 359) | MIC (P. aeruginosa; P. aeruginosa KUB No. 5802, AR Bank # 459)
2 µg/mL: MIC (P. aeruginosa; P. aeruginosa KUB No. 5666, AR Bank # 23) | MIC (P. aeruginosa; P. aeruginosa KUB No. 5695, AR Bank # 262) | MIC (P. aeruginosa; P. aeruginosa KUB No. 5696, AR Bank # 263) | MIC (P. aeruginosa; P. aeruginosa KUB No. 5801, AR Bank # 458)
0.008 µg/mL: MIC (P. aeruginosa; P. aeruginosa KUB No. 5813, AR Bank # 508) | MIC (P. aeruginosa; P. aeruginosa KUB No. 5815, AR Bank # 510)
>64 µg(mL): MIC against 26 metallo-carbapenemase-producing strains MIC90 (P. aeruginosa; [1])
0.064 µg/mL: MIC (P. aeruginosa; P. aeruginosa KUB No. 5823, AR Bank # 518)
0.001 µg/mL: MIC (P. aeruginosa; P. aeruginosa KUB No. 5816, AR Bank # 511) | MIC (P. aeruginosa; P. aeruginosa KUB No. 5819, AR Bank # 514) | MIC (P. aeruginosa; P. aeruginosa KUB No. 5821, AR Bank # 516)
32 µg/mL: MIC (P. aeruginosa; P. aeruginosa KUB No. 5561, AR Bank # 64) | MIC (P. aeruginosa; P. aeruginosa KUB No. 5587, AR Bank # 90) | MIC (P. aeruginosa; P. aeruginosa KUB No. 5592, AR Bank # 95) | MIC (P. aeruginosa; P. aeruginosa KUB No. 5607, AR Bank # 110) | MIC (P. aeruginosa; P. aeruginosa KUB No. 5608, AR Bank # 111) | MIC (P. aeruginosa; P. aeruginosa KUB No. 5663, AR Bank # 230) | MIC (P. aeruginosa; P. aeruginosa KUB No. 5674, AR Bank # 241) | MIC (P. aeruginosa; P. aeruginosa KUB No. 5679, AR Bank # 246) | MIC (P. aeruginosa; P. aeruginosa KUB No. 5688, AR Bank # 255) | MIC (P. aeruginosa; P. aeruginosa KUB No. 5693, AR Bank # 260) | MIC (P. aeruginosa; P. aeruginosa KUB No. 5697, AR Bank # 264) | MIC (P. aeruginosa; P. aeruginosa KUB No. 5699, AR Bank # 266) | MIC (P. aeruginosa; P. aeruginosa KUB No. 5700, AR Bank # 267) | MIC (P. aeruginosa; P. aeruginosa KUB No. 5702, AR Bank # 269) | MIC (P. aeruginosa; P. aeruginosa KUB No. 5703, AR Bank # 270) | MIC (P. aeruginosa; P. aeruginosa KUB No. 5704, AR Bank # 271) | MIC (P. aeruginosa; P. aeruginosa KUB No. 5748, AR Bank # 352) | MIC (P. aeruginosa; P. aeruginosa KUB No. 5749, AR Bank # 353) | MIC (P. aeruginosa; P. aeruginosa KUB No. 5751, AR Bank # 355) | MIC (P. aeruginosa; P. aeruginosa KUB No. 5753, AR Bank # 357) | MIC (P. aeruginosa; P. aeruginosa KUB No. 5785, AR Bank # 439) | MIC (P. aeruginosa; P. aeruginosa KUB No. 5786, AR Bank # 440) | MIC (P. aeruginosa; P. aeruginosa KUB No. 5789, AR Bank # 444) | MIC (P. aeruginosa; P. aeruginosa KUB No. 5790, AR Bank # 445) | MIC (P. aeruginosa; P. aeruginosa KUB No. 5793, AR Bank # 449)
> 0.064 µg/mL: MIC (P. aeruginosa; P. aeruginosa KUB No. 5818, AR Bank # 513) | MIC (P. aeruginosa; P. aeruginosa KUB No. 5820, AR Bank # 515)
16 µg/mL: MIC50 (53 CRE and CPE strains; read-out: MIC50) | MIC (P. aeruginosa; P. aeruginosa KUB No. 5669, AR Bank # 236) | MIC (P. aeruginosa; P. aeruginosa KUB No. 5675, AR Bank # 242) | MIC (P. aeruginosa; P. aeruginosa KUB No. 5676, AR Bank # 243) | MIC (P. aeruginosa; P. aeruginosa KUB No. 5681, AR Bank # 248) | MIC (P. aeruginosa; P. aeruginosa KUB No. 5685, AR Bank # 252) | MIC (P. aeruginosa; P. aeruginosa KUB No. 5687, AR Bank # 254)
> 64 µg/mL: MIC (P. aeruginosa; P. aeruginosa KUB No. 5597, AR Bank # 100) | MIC (P. aeruginosa; P. aeruginosa KUB No. 5602, AR Bank # 105) | MIC (P. aeruginosa; P. aeruginosa KUB No. 5673, AR Bank # 240) | MIC (P. aeruginosa; P. aeruginosa KUB No. 5678, AR Bank # 245) | MIC (P. aeruginosa; P. aeruginosa KUB No. 5799, AR Bank # 456) | MIC (P. aeruginosa; P. aeruginosa KUB No. 5806, AR Bank # 864)
64 µg/mL: MIC80 (53 CRE and CPE strains; read-out: MIC80) | MIC90 (53 CRE and CPE strains; read-out: MIC90) | MIC (P. aeruginosa; P. aeruginosa KUB No. 5083, AR Bank # 250) | MIC (P. aeruginosa; P. aeruginosa KUB No. 5551, AR Bank # 54) | MIC (P. aeruginosa; P. aeruginosa KUB No. 5589, AR Bank # 92) | MIC (P. aeruginosa; P. aeruginosa KUB No. 5591, AR Bank # 94) | MIC (P. aeruginosa; P. aeruginosa KUB No. 5600, AR Bank # 103) | MIC (P. aeruginosa; P. aeruginosa KUB No. 5605, AR Bank # 108) | MIC (P. aeruginosa; P. aeruginosa KUB No. 5662, AR Bank # 229) | MIC (P. aeruginosa; P. aeruginosa KUB No. 5664, AR Bank # 231) | MIC (P. aeruginosa; P. aeruginosa KUB No. 5668, AR Bank # 235) | MIC (P. aeruginosa; P. aeruginosa KUB No. 5672, AR Bank # 239) | MIC (P. aeruginosa; P. aeruginosa KUB No. 5677, AR Bank # 244) | MIC (P. aeruginosa; P. aeruginosa KUB No. 5682, AR Bank # 249) | MIC (P. aeruginosa; P. aeruginosa KUB No. 5690, AR Bank # 257) | MIC (P. aeruginosa; P. aeruginosa KUB No. 5698, AR Bank # 265) | MIC (P. aeruginosa; P. aeruginosa KUB No. 5788, AR Bank # 443) | MIC (P. aeruginosa; P. aeruginosa KUB No. 5800, AR Bank # 457) | MIC (P. aeruginosa; P. aeruginosa KUB No. 5805, AR Bank # 863)
32 µg(mL): MIC against 26 metallo-carbapenemase-producing strains MIC50 (P. aeruginosa; [1]) | MIC against 96 strains of P. aeruginosa MIC50 (P. aeruginosa; [2])
0.5 µg/mL: MIC (P. aeruginosa; P. aeruginosa KUB No. 579, AR Bank # 447) | MIC (P. aeruginosa; P. aeruginosa KUB No. 5670, AR Bank # 237) | MIC (P. aeruginosa; P. aeruginosa KUB No. 5671, AR Bank # 238) | MIC (P. aeruginosa; P. aeruginosa KUB No. 5689, AR Bank # 256) | MIC (P. aeruginosa; P. aeruginosa KUB No. 5691, AR Bank # 258) | MIC (P. aeruginosa; P. aeruginosa KUB No. 5692, AR Bank # 259) | MIC (P. aeruginosa; P. aeruginosa KUB No. 5752, AR Bank # 356) | MIC (P. aeruginosa; P. aeruginosa KUB No. 5787, AR Bank # 441)
64 µg(mL): MIC against 96 strains of P. aeruginosa MIC90 (P. aeruginosa; [2])
